In patent US20210393745A1, “OLIGOMER EXTENDED INSULIN-FC CONJUGATES AND THEIR MEDICAL USE” (Novo Nordisk A/S, priority 2018, published 2021):

Experiments:
[1] = In vivo PK after s.c. dosing, normal rats; parameters: species or system Sprague-Dawley rat; settings: s.c. 30 nmol/kg, mean value
Procedure: (§1) Insulin-Fc conjugates were tested in vivo by subcutaneous (s.c.) administration to normal and streptozotocin (STZ) treated male Sprague-Dawley (SD) rats.
(§2) The rats were dosed s.c. in the neck region with a dose of 30 nmol/kg of the insulin-Fc conjugates. Blood samples for blood glucose and plasma insulin analysis were collected from the tongue vein up to 10 days post dosing. The insulin-Fc concentrations were measured by immuno-assay (LLOQ=1000 pM) and the resulting half-life values after s.c. dosing are shown in Table 4. The PK profiles for normal rats are shown in FIG. 3 and for streptozotocin treated rats in FIG. 6. Blood glucose (BG) was measured using Biosen S Line (EKF) and the BG and baseline corrected BG profiles for normal rats are shown in FIGS. 1 and 2 and for streptozotocin treated rats in FIGS. 4 and 5 respectively.

primary rat adipocytes = assay: Lipogenesis in rat adipocytes; assay type: cell-based; settings: relative to human insulin
Procedure: As a measure of in vitro potency of the insulin conjugatess of the invention, lipogenesis can be used. Primary rat adipocytes are isolated from the epididymale fat pads and incubated with 3H-glucose in buffer containing e.g. 0.1% fat free HSA and either standard (human insulin, HI) or insulin conjugates of the invention. The labelled glucose is converted into extractable lipids in a dose dependent way, resulting in full dose response curves. The result is expressed as relative potency (%) with 95% confidence limits of insulin of the invention compared to standard (HI).

[2] = molecular target: T1, membrane-associated human IGF-1R (Homo sapiens, UniProt P08069); assay: IGF-1 receptor affinity on membrane associated receptors (SPA); assay type: binding; settings: membrane-associated IGF-1R, relative to human insulin
T1 construct: expressed in transfected cells; host or cells: BHK cells, pZem219B vector, plasma membrane preparation
T1 sequence (P08069 31-736 limits assumed): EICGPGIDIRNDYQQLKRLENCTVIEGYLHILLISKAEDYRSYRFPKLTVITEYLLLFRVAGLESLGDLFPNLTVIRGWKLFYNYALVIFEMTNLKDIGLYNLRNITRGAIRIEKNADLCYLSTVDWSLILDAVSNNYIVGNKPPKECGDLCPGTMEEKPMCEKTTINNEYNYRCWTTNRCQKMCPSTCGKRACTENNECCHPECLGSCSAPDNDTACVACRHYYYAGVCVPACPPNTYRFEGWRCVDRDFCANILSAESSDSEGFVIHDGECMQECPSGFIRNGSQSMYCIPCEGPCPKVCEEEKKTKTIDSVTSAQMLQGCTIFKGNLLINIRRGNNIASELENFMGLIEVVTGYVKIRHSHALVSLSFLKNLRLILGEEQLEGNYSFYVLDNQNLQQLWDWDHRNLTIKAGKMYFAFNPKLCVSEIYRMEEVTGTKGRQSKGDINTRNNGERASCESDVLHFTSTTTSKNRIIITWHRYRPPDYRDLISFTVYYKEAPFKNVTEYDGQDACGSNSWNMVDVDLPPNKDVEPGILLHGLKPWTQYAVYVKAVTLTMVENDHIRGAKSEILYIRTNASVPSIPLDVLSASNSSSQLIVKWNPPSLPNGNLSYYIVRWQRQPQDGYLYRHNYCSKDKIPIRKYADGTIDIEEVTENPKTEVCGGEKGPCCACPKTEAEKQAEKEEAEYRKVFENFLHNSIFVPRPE
T1 sequence (P08069 741-1367 partner limits assumed): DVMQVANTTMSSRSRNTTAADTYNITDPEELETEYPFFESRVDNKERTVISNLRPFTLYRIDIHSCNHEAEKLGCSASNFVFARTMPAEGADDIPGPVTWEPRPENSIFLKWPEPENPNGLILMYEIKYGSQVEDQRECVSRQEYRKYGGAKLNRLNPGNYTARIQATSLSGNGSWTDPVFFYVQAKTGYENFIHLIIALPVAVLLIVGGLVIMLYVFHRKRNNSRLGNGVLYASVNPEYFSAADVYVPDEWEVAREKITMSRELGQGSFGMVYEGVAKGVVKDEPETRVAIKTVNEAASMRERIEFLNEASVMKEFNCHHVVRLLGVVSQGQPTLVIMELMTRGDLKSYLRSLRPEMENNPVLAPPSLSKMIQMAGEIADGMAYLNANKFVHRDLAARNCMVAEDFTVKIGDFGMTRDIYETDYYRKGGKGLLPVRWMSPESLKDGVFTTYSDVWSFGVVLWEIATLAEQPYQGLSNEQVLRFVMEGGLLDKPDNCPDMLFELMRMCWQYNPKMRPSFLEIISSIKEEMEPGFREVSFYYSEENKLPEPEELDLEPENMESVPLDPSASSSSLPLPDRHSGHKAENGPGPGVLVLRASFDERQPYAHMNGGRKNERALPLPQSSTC
Procedure: (§3) Membrane-associated human IR and IGF-1R are purified from BHK cells stably transfected with the pZem219B vector containing either the human IR-A, IR-B or IGF-IR insert. BHK cells are harvested and homogenized in ice-cold buffer (25 mM HEPES pH 7.4, 25 mM CaCl2 and 1 mM MgCl2, 250 mg/L bacitracin, 0.1 mM Pefablock). The homogenates are layered on a 41% (w/v) sucrose cushion and centrifuged for 75 minutes at 95000 g at 4° C. The plasma membranes are collected, diluted 1:5 with buffer (as above) and centrifuged again for 45 minutes at 40000 g at 4° C. The pellets are resuspended in a minimal volume of buffer and drawn through a needle (size 23) three times before storage at −80° C. until usage. The relative binding affinity for either of the membrane-associated human IR-A, IR-B or IGF-1R is determined by competition binding in a SPA setup. IR assays are performed in duplicate in 96-well OptiPlates (Perkin-Elmer Life Sciences). Membrane protein is incubated with gentle agitation for 150 minutes at 25° C. with 50 pM [^125IA14Y]-human insulin in a total volume of […] assay buffer (50 mM HEPES, 150 mM NaCl, 5 mM MgSO4, 0.01% Triton X-100, 0.1% (w/v) HSA (Sigma A1887), Complete EDTA-free protease inhibitors), 50 μg of wheat germ agglutinate (WGA)-coated PVT microspheres (GE Healthcare) and increasing concentrations of ligand. Assays are terminated by centrifugation of the plate at 2000 rpm for 2 minutes and bound radioactivity quantified by counting on a TopCount NXT (Perkin-Elmer Life Sciences).
(§4) IGF-1R assays are conducted essentially as for the IR binding assays except that membrane-associated IGF-1R and 50 pM [^125I-Tyr31]-human IGF-1 were employed.

[3] = molecular target: T2, membrane-associated human IR-B (Homo sapiens, UniProt P06213); assay: Insulin receptor affinity on membrane associated receptors (SPA), IR-B; assay type: binding; settings: relative to human insulin
T2 construct: expressed in transfected cells; host or cells: BHK cells, pZem219B vector, plasma membrane preparation
T2 sequence (P06213 28-758 limits assumed): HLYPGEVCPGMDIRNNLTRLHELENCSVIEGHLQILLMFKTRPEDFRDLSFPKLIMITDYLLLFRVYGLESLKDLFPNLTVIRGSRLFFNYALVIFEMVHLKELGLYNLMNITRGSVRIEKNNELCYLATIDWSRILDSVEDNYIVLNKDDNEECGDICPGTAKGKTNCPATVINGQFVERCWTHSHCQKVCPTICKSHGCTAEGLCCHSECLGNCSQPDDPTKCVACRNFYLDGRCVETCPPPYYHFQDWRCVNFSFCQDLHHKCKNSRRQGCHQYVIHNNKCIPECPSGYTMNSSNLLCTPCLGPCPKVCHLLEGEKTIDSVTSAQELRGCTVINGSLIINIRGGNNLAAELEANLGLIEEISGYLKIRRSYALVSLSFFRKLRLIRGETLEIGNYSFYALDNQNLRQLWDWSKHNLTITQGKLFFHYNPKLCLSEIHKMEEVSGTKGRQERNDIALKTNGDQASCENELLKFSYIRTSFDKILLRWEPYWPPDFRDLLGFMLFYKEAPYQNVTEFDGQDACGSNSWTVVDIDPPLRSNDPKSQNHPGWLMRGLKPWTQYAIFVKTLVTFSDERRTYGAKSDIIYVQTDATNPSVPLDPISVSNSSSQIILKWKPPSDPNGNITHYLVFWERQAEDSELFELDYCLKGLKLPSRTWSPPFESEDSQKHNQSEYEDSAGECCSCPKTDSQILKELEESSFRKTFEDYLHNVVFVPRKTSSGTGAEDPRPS
T2 sequence (P06213 763-1382 partner limits assumed): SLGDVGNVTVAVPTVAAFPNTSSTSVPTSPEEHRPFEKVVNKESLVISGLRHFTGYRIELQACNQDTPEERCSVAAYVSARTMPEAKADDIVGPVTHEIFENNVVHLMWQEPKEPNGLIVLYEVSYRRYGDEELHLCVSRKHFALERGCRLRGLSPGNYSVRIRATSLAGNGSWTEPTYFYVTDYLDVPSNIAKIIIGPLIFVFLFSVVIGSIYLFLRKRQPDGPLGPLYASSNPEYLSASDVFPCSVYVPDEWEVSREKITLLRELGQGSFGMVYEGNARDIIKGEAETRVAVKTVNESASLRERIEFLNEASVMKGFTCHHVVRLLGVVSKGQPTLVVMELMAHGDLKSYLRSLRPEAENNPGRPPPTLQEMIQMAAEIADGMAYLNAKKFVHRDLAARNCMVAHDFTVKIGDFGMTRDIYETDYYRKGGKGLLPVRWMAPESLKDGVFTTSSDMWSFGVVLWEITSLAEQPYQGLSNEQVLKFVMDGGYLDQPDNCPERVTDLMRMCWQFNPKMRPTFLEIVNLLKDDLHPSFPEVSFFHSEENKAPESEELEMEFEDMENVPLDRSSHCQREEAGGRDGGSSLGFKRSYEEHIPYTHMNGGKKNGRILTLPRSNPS
Procedure: as §3, §4

[4] = In vivo PK after s.c. dosing, streptozotocin treated rats; parameters: species or system Sprague-Dawley rat; settings: s.c. 30 nmol/kg, mean value
Procedure: as §1, §2

[5] = Stability study: high-molecular weight products by native size-exclusion chromatography; assay type: physicochemical; settings: HMWP %(5° C.) − HMWP %(30° C.), 30 μM, pH 7.4
Procedure: Samples for stability studies were prepared by weighing out 8-10 mg freeze-dried material. The freeze-dried material was solubilized to […] in a premade solution A (5 mM phophate (pH 7.4), 140 mM NaCl and 70 ppm polysorbate 20). Protein concentration was determined using absorbance at 280 nm using a Nanodrop 2000 (Thermo Fisher Scientific Inc.) and theoretical extinction coefficients. Dilution into solution A was done to reach a final concentration of 30 μM.
Native size-exclusion chromatography was performed on a High-Performance Liquid Chromatography system (Waters Alliance) equipped with a UV/Vis detector (Waters 2489 UV/Vis detector). A Waters XBridge BEH 200 Å, 3.5 μm column with dimensions 7.8×300 mm, kept at 30° C., was used. The mobile phase was 50 mM sodium phosphate (pH 7.0), 50 mM NaCl, 5% isopropyl alcohol (v/v). Injection volume was 5 μL. The flow rate was kept at 0.5 mL/min. Peaks were detected using absorbance at 215 nm and data processing is performed with the EMPOWER 3 software from Waters. Samples were analysed for high molecular weight products (HMWP) by relating the total integral of material eluting before main peak with main monomeric peak. In all chromatograms, full baseline separation was observed. […]
Stability of Fc-insulin analogues was evaluated by comparing purity from anion exchange chromatography and formation of high molecular weight products (HMWP) at 5° C. […]

[6] = system: normal Sprague-Dawley rats; assay: In vivo PD, blood glucose lowering in normal rats; parameters: species or system Sprague-Dawley rat; settings: s.c. 30 nmol/kg, baseline corrected BG up to 10 days, difference from vehicle, mean
Procedure: as §1, §2

[7] = molecular target: T3, membrane-associated human IR-A (Homo sapiens, UniProt P06213); assay: Insulin receptor affinity on membrane associated receptors (SPA), IR-A; assay type: binding; settings: relative to human insulin
T3 construct: expressed in transfected cells; host or cells: BHK cells, pZem219B vector, plasma membrane preparation
T3 sequence (P06213 28-1370 isoform P06213-2 limits assumed): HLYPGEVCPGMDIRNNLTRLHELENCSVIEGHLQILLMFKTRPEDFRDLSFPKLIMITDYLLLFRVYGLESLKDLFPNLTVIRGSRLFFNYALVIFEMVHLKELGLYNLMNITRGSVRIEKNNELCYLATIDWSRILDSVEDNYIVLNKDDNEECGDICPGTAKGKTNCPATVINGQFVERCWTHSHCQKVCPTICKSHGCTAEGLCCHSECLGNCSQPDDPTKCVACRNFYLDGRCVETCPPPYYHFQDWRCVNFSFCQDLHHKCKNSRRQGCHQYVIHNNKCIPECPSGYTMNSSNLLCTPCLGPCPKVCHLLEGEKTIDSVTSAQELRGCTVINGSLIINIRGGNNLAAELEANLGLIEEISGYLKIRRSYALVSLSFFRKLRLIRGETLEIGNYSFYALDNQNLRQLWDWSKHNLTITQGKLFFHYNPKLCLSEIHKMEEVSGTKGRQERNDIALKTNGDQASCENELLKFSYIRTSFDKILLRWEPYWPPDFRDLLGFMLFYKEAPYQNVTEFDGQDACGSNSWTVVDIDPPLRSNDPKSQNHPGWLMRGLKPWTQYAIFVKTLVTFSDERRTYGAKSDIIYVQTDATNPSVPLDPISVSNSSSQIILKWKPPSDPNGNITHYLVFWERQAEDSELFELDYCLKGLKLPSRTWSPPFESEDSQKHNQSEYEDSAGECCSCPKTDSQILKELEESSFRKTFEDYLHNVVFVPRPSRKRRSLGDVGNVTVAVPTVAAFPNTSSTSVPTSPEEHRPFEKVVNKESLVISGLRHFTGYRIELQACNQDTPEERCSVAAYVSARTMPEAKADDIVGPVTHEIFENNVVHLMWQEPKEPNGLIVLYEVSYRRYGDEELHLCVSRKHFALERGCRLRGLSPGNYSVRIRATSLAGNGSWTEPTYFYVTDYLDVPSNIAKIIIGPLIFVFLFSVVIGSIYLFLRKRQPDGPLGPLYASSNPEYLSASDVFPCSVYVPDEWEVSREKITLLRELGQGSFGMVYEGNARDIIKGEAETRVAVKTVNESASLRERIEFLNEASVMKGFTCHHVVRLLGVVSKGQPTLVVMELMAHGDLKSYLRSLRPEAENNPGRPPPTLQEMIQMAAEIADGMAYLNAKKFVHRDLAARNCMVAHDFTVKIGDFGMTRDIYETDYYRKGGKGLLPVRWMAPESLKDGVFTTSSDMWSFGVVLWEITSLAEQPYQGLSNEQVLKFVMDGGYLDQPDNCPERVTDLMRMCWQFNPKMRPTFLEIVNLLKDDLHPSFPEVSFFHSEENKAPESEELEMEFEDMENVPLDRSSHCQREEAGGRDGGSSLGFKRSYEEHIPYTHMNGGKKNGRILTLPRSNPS
T3 sequence (P06213 763-1382 partner limits assumed): as the sequence (P06213 763-1382 partner limits assumed) above
Procedure: as §3, §4

Row | Substance | PK normal rat [T1/2, s.c. (h)] [1] [h] | Lipogenesis Rel. pot. (%) (primary rat adipocytes) | IGF1R mem Rel. aff. (%) [2] [%] | hIR-B mem Rel. aff. (%) [3] [%] | PK STZ rat [T1/2, s.c. (h)] [4] [h] | Δ HMWP % [5] [%] | AOCBG normal rat [6] [mM·h] | hIR-A mem Rel. aff. (%) [7] [%]
1 | (A14E, A21G, A22(GQEP)12, A70K^, A71P, B25H, B29R, desB30 human insulin)/(226A, 227G, 228P, 234A, 235K, 297E, 315Q, 384Q, des447 hIgG4-Fc(226-447))3,5-bis[(2-acetyl)amino]benzoyl Conjugate [Example 5.1] | 20 | 2.86 | 0.91 | 3.05 | 24 | −2.17 | 251 | 2.97
2 | (A14E, A21G, A22(GQEP)11, A66G, A67Q, A68E, A69K^, A70P, B16H, B25H, B29R, desB30 human insulin)/(226A, 227G, 228P, 234A, 235K, 297E, 315Q, 384Q, des447 hIgG4-Fc(226-447))3,5-bis[(2-acetyl)amino]benzoyl Conjugate [Example 5.2] | 38 | 1.14 | 0.10 | 1.26 | 39 | −0.63 | 364 | 1.27
